Reference: patent publication US12569542B2, “Treatment of cancer with immune stimulators” (SciClone Pharmaceuticals International (SG) PTE. LTD., priority 2014, dated 2026)
Read-outs that look alike come from different tables or passages of the source. Where no end group is shown, it is not given here.

Legend:
B16F10 murine melanoma [1] = test: Subcutaneous B16F10 murine melanoma model, thymosin (Study No. 1 and Study No. 2); type: in vivo, C57BL/6 mice; settings: for mean tumor size / T/C value: day 14 post tumor inoculation; for tumor growth delay: at tumor size of 1,140 mm^3
Text: (§1) B16F10 murine melanoma model is derived from MB16 line by successive selection of metastatic clones. B16F1 to B16F10 (ATCC Number CRL-6475™) were generated, with F10 being passaged in mice for 10 times, and thus highly metastatic. This model is widely used in studying metastasis mechanisms, evaluating cancer therapeutics. It is also one of the most common syngeneic models for cancer immunotherapy. Both subcutaneous and experimental metastasis models are very useful.
To study the effect of thymosin in treating melanoma, thymosin alpha peptide (ZADAXIN) was administered to mice inoculated with B16F10 in two separate studies:
(§2) Tumor volumes and body weights were monitored throughout the study. Cisplatin was administered to the positive control group in a separate historical control study. The negative control group was administered with vehicle only in all studies.

IL-1β [2] = test: Biomarker evaluation in subcutaneous B16F10 murine melanoma model (FIG. 4A); type: in vivo, C57BL/6 mice; settings: subcutaneously twice a day for 6 days at 0.02, 0.06, 0.2, 0.3, 2, or 6 mg/kg, D4 and D7 after start of dosing
Description: FIG. 4A depicts evaluation of IL-1β in subcutaneous B16F10 murine melanoma model in C57BL/6 mice treated with thymosin. ZADAXIN™ (thymalfasin) was administered to mice subcutaneously twice a day for 6 days at 0.02, 0.06, 0.2, 0.3, 2, or 6 mg/kg 10 μL/g. IL-1β levels were lower in ZADAXIN™ (thymalfasin) treated groups compared to vehicle treated groups at D4 and D7 after start of dosing.
(§3) In the studies described above, a group of potential biomarkers were tested in, including IL-7, 11-18, TREM-1, IFN-α, procalcitonin, GM-CSF, IL-1α, IFN-γ, TNF a, IL-2, IL-4, IL-5, IL-6, IL-10, IL-12p70, and IL-1β.

IL-4 = test: Biomarker evaluation in subcutaneous B16F10 murine melanoma model (FIG. 4B); type: in vivo, C57BL/6 mice; settings: subcutaneously twice a day for 6 days at 0.02, 0.06, 0.2, 0.3, 2, or 6 mg/kg, D4 and D7 after start of dosing
Description: FIG. 4B depicts evaluation of IL-4 in subcutaneous B16F10 murine melanoma model in C57BL/6 mice treated with thymosin. ZADAXIN™ (thymalfasin) was administered to mice subcutaneously twice a day for 6 days at 0.02, 0.06, 0.2, 0.3, 2, or 6 mg/kg 10 μL/g. IL-4 levels were higher in ZADAXIN™ (thymalfasin) treated groups compared to vehicle treated groups at D4 and D7 after start of dosing.
as §3

IL-6 = test: Biomarker evaluation in subcutaneous B16F10 murine melanoma model (FIG. 4C); type: in vivo, C57BL/6 mice; settings: subcutaneously twice a day for 6 days at 0.02, 0.06, 0.2, 0.3, 2, or 6 mg/kg, D4 and D7 after start of dosing
Description: FIG. 4C depicts evaluation of IL-6 in subcutaneous B16F10 murine melanoma model in C57BL/6 mice treated with thymosin. ZADAXIN™ (thymalfasin) was administered to mice subcutaneously twice a day for 6 days at 0.02, 0.06, 0.2, 0.3, 2, or 6 mg/kg 10 μL/g. IL-6 levels were lower in ZADAXIN™ (thymalfasin) treated groups compared to vehicle treated groups at D4 and D7 after start of dosing.
as §3

IL-1β [3] = test: Biomarker evaluation in subcutaneous B16F10 murine melanoma model (FIG. 4D); type: in vivo, C57BL/6 mice; settings: subcutaneously twice a day for 6 days at 0.02, 0.06, 0.2, 0.3, 2, or 6 mg/kg, D4 and D7 after start of dosing
Description: FIG. 4D depicts evaluation of IL-1β in subcutaneous B16F10 murine melanoma model in C57BL/6 mice treated with thymosin. ZADAXIN™ (thymalfasin) was administered to mice subcutaneously twice a day for 6 days at 0.02, 0.06, 0.2, 0.3, 2, or 6 mg/kg 10 μL/g. IL-1β levels were lower in ZADAXIN™ (thymalfasin) treated groups compared to vehicle treated groups at D4 and D7 after start of dosing.
as §3

[4] = system: B16-F10 cells (lung metastases); settings: for Mean Met Count / Percent Inhibition: Day 16; for Mean Met Count: SR1 220.51 μg/animal sc bid to end, Anti-PD-1-SCE 100 μg/animal ip biwk ×3, combination at the same doses, Cyclophosphamide 300 mg/kg ip Qd ×1; for Percent Inhibition: [1 − (T/C)] × 100, compared to Group 1 (vehicle); for Deaths NTR (non-treatment-related death) / Deaths TR (treatment-related death): n = 10 per group
Description: (§4) The animals were fed ad libitum water (reverse osmosis, 1 ppm Cl) and NIH 31 Modified and Irradiated Lab Diet® consisting of 18.0% crude protein, 5.0% crude fat, and 5.0% crude fiber. The mice were housed on irradiated Enrich-o'cobs™ bedding in static microisolators on a 12-hour light cycle at 20-22° C. (68-72° F.) and 40-60% humidity. DRS-NC specifically complies with the recommendations of the Guide for Care and Use of Laboratory Animals with respect to restraint, husbandry, surgical procedures, feed and fluid regulation, and veterinary care. The animal care and use program at DRS-NC is accredited by the Association for Assessment and Accreditation of Laboratory Animal Care International, which assures compliance with accepted standards for the care and use of laboratory animals.
(§5) A sixth group of animals was included as the “look-see” group (n=9). B16-F10 cells were harvested during log-phase growth and resuspended at a concentration of 7.5×10^5 cells/mL in PBS. Each mouse received an intravenous (i.v.) tail vein injection of 1.5×10^5 B16-F10 cells (0.2 mL cell suspension) on D1 of the study.
(§6) Test Articles: Anti-PD1 alpha peptide (coded as anti-PD-1-SCE, Lot. No. 5177/0214) and thymosin alpha-1 peptide (Thymalfasin, code-named SR1, Lot. No. 1402-224). DRS-NC assigned code names for the purpose of confidentiality during in-house testing. […] Dosing was not adjusted per body weight. Anti-PD-1-SCE antibody was diluted in PBS to yield a 10.0 mg/mL dosing solution, which provided a 100 mg/kg dosage in a dosing volume of 10 mL/kg. Dosing was not adjusted per body weight. […] Dosing was adjusted per body weight.
(§7) Endpoint: The endpoint of the B16MET-e117 study was defined as 100 metastases per lung set. Two to three animals from the “look-see” group were euthanized in three days intervals beginning on Day 9 and lung metastatic foci were counted. […] The study was terminated on D16 and all animals were euthanized and their metastases counted. Percent inhibition was defined as the difference between the number of metastatic foci of the designated control group and the number of metastatic foci of the drug-treated group, expressed as a percentage of the number of metastatic foci of the designated control group: % Inhibition=[1−(#Focidrug-treated/#Focicontrol)]×100
(§8) Toxicity: Animals were weighed daily for the first five days of the study and twice weekly thereafter. […] Acceptable toxicity was defined as a group mean body-weight loss of less than 20% during the study and not more than one treatment-related (TR) death among ten treated animals. Any dosing regimen resulting in greater toxicity is considered above the maximum tolerated dose (MTD). A death is classified as TR if attributable to treatment side effects as evidenced by clinical signs and/or necropsy, or if due to unknown causes during the dosing period or within fourteen days of the last dose. A death is classified as non-treatment-related (NTR) if there is no evidence that death was related to treatment side effects.
Statistical and Graphical Analyses: Prism (GraphPad) for Windows 6.02 was used for all graphical presentations and statistical analyses. The Mann-Whitney U-test, for analysis of medians, was used to determine the statistical significance between D16 B16F10 metastatic foci in control and treated groups. Two-tailed statistical analyses were conducted at P=0.05. A “box and whiskers” diagram was constructed to show the distribution of enumerated metastatic foci for each treatment group on D16.
Prism reports results as non-significant (ns) at P>0.05, significant (symbolized by “*”) at 0.01<P≤0.05, very significant (“**”) at 0.001<P≤0.01, and extremely significant (“***”) at P≤0.001.

[5] = system: B16-F10 cells (lung metastases); settings: for Mean Met Count: Day 15; for Inhibition (%): compared to Group 1; for Deaths NTR / Deaths TR: n = 10
Description: as §4, §5, §6, §7, §8
B16F10 Mouse Lung Metastatic Melanoma Model was developed. About 1.5×10^5 B16-F10 cells (0.2 mL cell suspension) were grown in vitro and administered intravenously (Day 0) to female B6D2F1/Crl mice. On Day 1 dosing with test agents initiated.
A “look see”-untreated-group was set to evaluate, over a period of 15 days, the number of metastasis. […] Three days later other three mice were examined. When the met count reached approximately 50-100 counts, all groups in the study were sacrificed and final met counts were established. The “look see” group count was not included in the final efficacy analysis. 50-100 met count defined as the target number because most of the individual metastasis could be count easily and mets were less likely to merge with each other difficulty the counting.

[6] = system: B16F10 Murine Melanoma (lung metastasis foci); test: Systemic B16F10 murine melanoma model, lung metastasis foci (independent laboratory); type: in vivo, C57BL/6 mice
B16F10 murine melanoma [7] = test: Subcutaneous B16F10 murine melanoma model, cisplatin positive control (separate historical control study); type: in vivo, mice
Text: as §1, §2
B16F10 mice treated with cisplatin typically show reduced tumor volume (FIG. 1A and Table 3).

[8] = Group 2: SR1 0.4862 μg/animal sc bid to end
[9] = Group 3: SR1 4.86 μg/animal sc bid to end
[10] = Group 4: SR1 48.62 μg/animal sc bid to end
[11] = Group 13: Cyclophosphamide 300 mg/kg ip qd ×1
[12] = Group 13: Cyclophosphamide 300 mg/kg
[13] = Group 9: Cyclophosphomide 300 mg/kg

thymosin alpha 1 (Ac-SDAAVDTSSEITTKDLKEKKEVVEEAEN) [TA1, synthetic version sold as ZADAXIN (thymalfasin); code-named SR1]
tumor growth compared with vehicle treated group (B16F10 murine melanoma [1]; all doses tested, FIG. 2 and FIG. 3): reduced tumor growth
tumor growth compared with vehicle treated group (FIG. 3) (B16F10 murine melanoma [1]; several different doses, all tested doses): statistically significant reduced tumor growth
mean tumor size (B16F10 murine melanoma [1]; study I, TA1 0.2 mg/kg bid i.p. for 7 days): 1,148 mm^3
tumor growth delay (B16F10 murine melanoma [1]; study I, TA1 0.2 mg/kg): 1.5 days
T/C value (B16F10 murine melanoma [1]; study I, TA1 0.2 mg/kg): 57.56%
mean tumor size (B16F10 murine melanoma [1]; study I, TA1 2 mg/kg bid i.p. for 7 days): 1,384 mm^3
tumor growth delay (B16F10 murine melanoma [1]; study I, TA1 2 mg/kg): 0.5 days
T/C value (B16F10 murine melanoma [1]; study I, TA1 2 mg/kg): 69.36%
tumor growth (B16F10 murine melanoma [1]; study I, TA1 6 mg/kg, decrease didn't reach a significant difference): can delay tumor growth
weight changes by group (B16F10 murine melanoma [1]; thymosin treated B16F10 mice): no significant weight changes
IL-1β levels compared to vehicle treated groups (IL-1β [2]): lower
IL-4 levels compared to vehicle treated groups (IL-4): higher
IL-6 levels compared to vehicle treated groups (IL-6): lower
IL-1β levels compared to vehicle treated groups (FIG. 4D) (IL-1β [3]): lower
Mean Met Count [4]: 72.5
metastases to lung in melanoma model ([4]; Study I): decreases metastases to lung
Percent Inhibition ([4]; doses as E23): 31.5%
Deaths NTR (non-treatment-related death) ([4]; doses as E23): 0
Deaths TR (treatment-related death) ([4]; doses as E23): 0
Mean Met Count [5, 8]: 186
Inhibition (%) [5, 8]: −17%
Deaths NTR ([5]; Group 2: SR1 0.4862 μg/animal): 0
Deaths TR ([5]; Group 2: SR1 0.4862 μg/animal): 0
Mean Met Count [5, 9]: 182
Inhibition (%) [5, 9]: −14%
Deaths NTR ([5]; Group 3: SR1 4.86 μg/animal): 0
Deaths TR ([5]; Group 3: SR1 4.86 μg/animal): 0
Mean Met Count [5, 10]: 167
Inhibition (%) [5, 10]: −5%
Deaths NTR ([5]; Group 4: SR1 48.62 μg/animal): 0
Deaths TR ([5]; Group 4: SR1 48.62 μg/animal): 0
Inhibition (%) ([6]; Group 3: TA1 0.486 μg/mouse): 20.35%
Number of metastasis foci on day 13 (Mean ± SEM) ([6]; Group 3: TA1 0.486 μg/mouse): 92 ± 9
Inhibition (%) ([6]; Group 4: TA1 4.86 μg/mouse): 41.83%
Number of metastasis foci on day 13 (Mean ± SEM) ([6]; Group 4: TA1 4.86 μg/mouse): 67 ± 12
Inhibition (%) ([6]; Group 5: TA1 48.6 μg/mouse): 42.26%
Number of metastasis foci on day 13 (Mean ± SEM) ([6]; Group 5: TA1 48.6 μg/mouse): 66 ± 10

N.N.[Cl][Pt][Cl] [Cisplatin]
Tumor Size (mm^3) on Day 28 (B16F10 murine melanoma [7]; B16F10 mice treated with cisplatin, Day 28, historical control study): 862 ± 233 mm^3
body weight (B16F10 murine melanoma [7]; B16F10 mice treated with cisplatin, FIG. 1B, result of the toxicity of cisplatin): significantly reduced body weight
T/C Value (%) on Day 28 (B16F10 murine melanoma [7]; cisplatin vs vehicle, Day 28): 30%
T-C (days) at 800 mm^3 (B16F10 murine melanoma [7]; cisplatin vs vehicle, at tumor size 800 mm^3): >4 days

O=P1(N(CCCl)CCCl)NCCCO1 (centres unmarked) [Cyclophosphamide]
Mean Met Count [4]: 0.5
Percent Inhibition ([4]; doses as E23): 99.5%
Mean BW Nadir ([4]; lowest group mean body weight, as % change from Day 1, Cyclophosphamide nadir on Day 3, doses as E23): −4.3%
Deaths NTR (non-treatment-related death) ([4]; doses as E23): 0
Deaths TR (treatment-related death) ([4]; doses as E23): 0
Mean Met Count [5, 11]: 2
Inhibition (%) [5, 11]: 99%
Mean BW Nadir ([5]; Group 13: Cyclophosphamide 300 mg/kg, % change from Day 1, nadir Day 2): −8.0%
Deaths NTR [5, 12]: 0
Deaths TR [5, 12]: 0
Inhibition (%) [6, 13]: 100%
Number of metastasis foci on day 13 (Mean ± SEM) [6, 13]: 0 ± 0
